Experimental data: US9028845B2, “Chimeric immunomodulatory compounds and methods of using the same-IV” (Dynavax Technologies Corporation, priority 2001, dated 2015)

Tested on: human PBMCs
Assay: Human PBMC cytokine response assay (IFN-γ and IFN-α in cell-free medium by ELISA), with or without cPLGA
Type: cell-based
[1] = Donor 5, 20 μg/ml (mixtures: 20 μg/ml total), 24 h
[2] = Donor 6, 20 μg/ml (mixtures: 20 μg/ml total), 24 h

5′-TGACTGTGAACGTTCGAGATGA-3′ (SEQ ID NO: 2) [Compound P-6, reference compound]
IFN-α (pg/ml) Donor 1 (Donor 1, 20 μg/ml, 24 h): 401 pg/mL
IFN-γ (pg/ml) Donor 1 (Donor 1, 20 μg/ml, 24 h): 2180 pg/mL
IFN-α (pg/ml) Donor 2 (Donor 2, 20 μg/ml, 24 h): 39 pg/mL
IFN-γ (pg/ml) Donor 2 (Donor 2, 20 μg/ml, 24 h): 669 pg/mL
IFN-α (pg/ml) Donor 3 (Donor 3, 20 μg/ml, 24 h): 28 pg/mL
IFN-γ (pg/ml) Donor 3 (Donor 3, 20 μg/ml, 24 h): 99 pg/mL
IFN-α (pg/ml) Donor 4 (Donor 4, 20 μg/ml, 24 h): 106 pg/mL
IFN-γ (pg/ml) Donor 4 (Donor 4, 20 μg/ml, 24 h): 223 pg/mL
IFN-α (pg/ml) Donor 5 [1]: 54 pg/mL
IFN-γ (pg/ml) Donor 5 [1]: 73 pg/mL
IFN-α (pg/ml) Donor 6 [2]: 482 pg/mL
IFN-γ (pg/ml) Donor 6 [2]: 1170 pg/mL
IFN-α (pg/ml) Donor 7 (Donor 7, 20 μg/ml, 24 h): 4 pg/mL
IFN-γ (pg/ml) Donor 7 (Donor 7, 20 μg/ml, 24 h): 15 pg/mL
IFN-α (pg/ml) Donor 8 (Donor 8, 20 μg/ml, 24 h): 59 pg/mL
IFN-γ (pg/ml) Donor 8 (Donor 8, 20 μg/ml, 24 h): 367 pg/mL
IFN-α Donor 9 (Donor 9, 20 μg/ml, 24 h): 12
IFN-γ Donor 9 (Donor 9, 20 μg/ml, 24 h): 66
IFN-α Donor 10 (Donor 10, 20 μg/ml, 24 h): 28
IFN-γ Donor 10 (Donor 10, 20 μg/ml, 24 h): 20
IFN-α Donor 11 (Donor 11, 20 μg/ml, 24 h): 12
IFN-γ Donor 11 (Donor 11, 20 μg/ml, 24 h): 72
IFN-α Donor 12 (Donor 12, 20 μg/ml, 24 h): 12
IFN-γ Donor 12 (Donor 12, 20 μg/ml, 24 h): 23
IFN-α (Example 58, 0.8 ug/ml, donor 1): 52 pg/mL
IFN-α (Example 58, 0.8 ug/ml, donor 2): 52 pg/mL
IFN-α (Example 58, 0.8 ug/ml, donor 3): 52 pg/mL
IFN-α (Example 58, 0.8 ug/ml, donor 4): 52 pg/mL
IFN-α mean (Example 58, 0.8 ug/ml, mean of four individuals): 52 pg/mL
IFN-α (Example 58, 4 ug/ml, donor 1): 115 pg/mL
IFN-α (Example 58, 4 ug/ml, donor 2): 52 pg/mL
IFN-α (Example 58, 4 ug/ml, donor 3): 52 pg/mL
IFN-α (Example 58, 4 ug/ml, donor 4): 65 pg/mL
IFN-α mean (Example 58, 4 ug/ml, mean of four individuals): 71 pg/mL
IFN-α (Example 58, 20 ug/ml, donor 1): 116 pg/mL
IFN-α (Example 58, 20 ug/ml, donor 2): 64 pg/mL
IFN-α (Example 58, 20 ug/ml, donor 3): 52 pg/mL
IFN-α (Example 58, 20 ug/ml, donor 4): 52 pg/mL
IFN-α mean (Example 58, 20 ug/ml, mean of four individuals): 71 pg/mL
IFN-α (Example 59, 0.8 ug/ml, donor 48): 102 pg/mL
IFN-α (Example 59, 0.8 ug/ml, donor 177): 102 pg/mL
IFN-α (Example 59, 0.8 ug/ml, donor 272): 102 pg/mL
IFN-α (Example 59, 0.8 ug/ml, donor 273): 102 pg/mL
IFN-α mean (Example 59, 0.8 ug/ml, mean of four donors): 102 pg/mL
IFN-α (Example 59, 4 ug/ml, donor 48): 102 pg/mL
IFN-α (Example 59, 4 ug/ml, donor 177): 245 pg/mL
IFN-α (Example 59, 4 ug/ml, donor 272): 102 pg/mL
IFN-α (Example 59, 4 ug/ml, donor 273): 102 pg/mL
IFN-α mean (Example 59, 4 ug/ml, mean of four donors): 138 pg/mL
IFN-α (Example 59, 20 ug/ml, donor 48): 256 pg/mL
IFN-α (Example 59, 20 ug/ml, donor 177): 323 pg/mL
IFN-α (Example 59, 20 ug/ml, donor 272): 102 pg/mL
IFN-α (Example 59, 20 ug/ml, donor 273): 102 pg/mL
IFN-α mean (Example 59, 20 ug/ml, mean of four donors): 196 pg/mL
IFN-α (Table 9, donor 28089): 0 pg/mL
IFN-γ (Table 9, donor 28089): 84 pg/mL
IFN-α (Table 9, donor 28090): 62 pg/mL
IFN-γ (Table 9, donor 28090): 255 pg/mL
IFN-α (Table 9, donor 28098): 105 pg/mL
IFN-γ (Table 9, donor 28098): 745 pg/mL
IFN-α (Table 9, donor 28099): 105 pg/mL
IFN-γ (Table 9, donor 28099): 125 pg/mL
IFN-α mean (Table 9, mean of donors): 68 pg/mL
IFN-γ mean (Table 9, mean of donors): 302 pg/mL
IFN-α (Table 10, donor 28042): 27 pg/mL
IFN-γ (Table 10, donor 28042): 495 pg/mL
IFN-α (Table 10, donor 28043): 85 pg/mL
IFN-γ (Table 10, donor 28043): 1189 pg/mL
IFN-α (Table 10, donor 28044): 36 pg/mL
IFN-γ (Table 10, donor 28044): 925 pg/mL
IFN-α (Table 10, donor 28045): 21 pg/mL
IFN-γ (Table 10, donor 28045): 212 pg/mL
IFN-α mean (Table 10, mean of donors): 42 pg/mL
IFN-γ mean (Table 10, mean of donors): 705 pg/mL
IFN-α (Table 11, donor 28042): 9 pg/mL
IFN-γ (Table 11, donor 28042): 324 pg/mL
IFN-α (Table 11, donor 28043): 34 pg/mL
IFN-γ (Table 11, donor 28043): 1036 pg/mL
IFN-α (Table 11, donor 28044): 22 pg/mL
IFN-γ (Table 11, donor 28044): 529 pg/mL
IFN-γ (Table 11, donor 28045): 653 pg/mL
IFN-α mean (Table 11, mean of donors): 43 pg/mL
IFN-γ mean (Table 11, mean of donors): 636 pg/mL
IFN-α (Table 13, donor 28156): 52 pg/mL
IFN-γ (Table 13, donor 28156): 1132 pg/mL
IFN-α (Table 13, donor 28157): 484 pg/mL
IFN-γ (Table 13, donor 28157): 872 pg/mL
